According to paper PMC3765993, “The duration of sleep promoting efficacy by dual orexin receptor antagonists is dependent upon receptor occupancy threshold” (BMC Neuroscience, 2013):

Columns and labels:
rhesus monkeys = conditions: sleep-promoting doses; cited from earlier work
Orexin 2 receptor = molecular target: T1, Orexin 2 receptor (Homo sapiens, UniProt O43614); assay: Orexin 2 receptor binding kinetics; conditions: for T1/2 ON (binding half-life): almorexant applied 3-fold above its Kd (value an underestimate); for koff: read-out: KOFF (dissociation constant)
T1 sequence (O43614 1-444): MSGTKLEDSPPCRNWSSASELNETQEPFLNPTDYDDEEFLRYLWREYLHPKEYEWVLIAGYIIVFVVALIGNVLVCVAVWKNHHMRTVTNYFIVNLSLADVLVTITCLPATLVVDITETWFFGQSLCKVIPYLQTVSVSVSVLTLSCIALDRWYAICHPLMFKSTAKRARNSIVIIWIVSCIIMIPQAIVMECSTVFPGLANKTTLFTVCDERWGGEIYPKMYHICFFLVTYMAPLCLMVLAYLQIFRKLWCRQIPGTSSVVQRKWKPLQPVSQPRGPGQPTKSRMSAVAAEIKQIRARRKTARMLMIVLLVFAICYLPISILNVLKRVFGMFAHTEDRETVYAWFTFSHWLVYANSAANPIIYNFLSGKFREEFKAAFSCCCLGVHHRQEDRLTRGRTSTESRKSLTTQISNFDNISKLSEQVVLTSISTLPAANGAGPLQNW

## Cc1ccc(-c2nc3ccc(C)cn3c2CC(=O)N(C)C)cc1 [Zolpidem]
Rhesus monkeys
  Cognitive assessment in DMS and SCRT tasks within 2 h following treatment: substantial deficits

## Cc1ccc(-c2ncccn2)c(C(=O)N2C[C@H](COc3ccc(F)cn3)CC[C@H]2C)c1 [MK-6096, [(2R,5R)-5-{[(5-fluoropyridin-2-yl)oxy]methyl}-2-methylpiperidin-1-yl][5-methyl-2-(pyrimidin-2-yl)phenyl]methanone]
Orexin 2 receptor
  KON (association constant): 1.69e+07 mol⁻¹ min⁻¹
  Kd: 0.338 nM
  T1/2 OFF (half-life off-rates): 118 min
  T1/2 ON (binding half-life): 62.9 min
  koff: 0.000113 s⁻¹

## Cc1nc(C(=O)N2CCCC[C@H]2CNC(=O)c2cccc3occc23)c(-c2ccc(F)cc2)s1 [SB-649868]
Orexin 2 receptor
  KON (association constant): 2.56e+07 mol⁻¹ min⁻¹
  Kd: 0.163 nM
  T1/2 OFF (half-life off-rates): 57.0 min
  T1/2 ON (binding half-life): 37.0 min
  koff: 0.00021 s⁻¹
